Reference: patent US11246961B2, “Engineered scaffolds for vascularized tissue repair” (The Regents of the University of California, priority 2016, dated 2022)
Ends that are not written are not given here.

How the values were obtained:
integrin αIIbβ3 = biological target: T1, integrin αIIbβ3 (Homo sapiens, UniProt P05106+P08514); experiment: flow cytometry ligand-cell binding, αIIbβ3-K562 cells; settings: K562 cells highly expressing αIIbβ3
T1 construct: expressed in transfected cells; host or cells: K562 myeloid leukemia cells (αIIbβ3-K562), provided by Dr. Jennifer Cochran (Stanford University)
Procedure: (§1) FIG. 10 presents flow cytometry data from an assay of binding affinity of LXW7 and GRGD (SEQ ID NO: 1) to different cell types. Tests included EPCs/ECs from different sources, including HECFCs (A), HCAECs (B), HMVECs (C), and THP-1 monocytes (D), Platelets (E), as well as K562 cells engineered to highly express αvβ3 (αvβ3-K562, F), and αIIbβ3 (αIIbβ3-K562, G). Cells were incubated with the LXW7-bio, GRGD-bio (SEQ ID NO: 1), or D-Biotin peptide and subsequently incubated with streptavidin-phycoerythrin. Flow cytometry analysis was performed to determine the binding affinity of the ligands. Samples treated with D-biotin were used as negative controls.
(§2) Human coronary artery endothelial cells (HCAECs) were purchased from ATCC. Human cardiac microvascular endothelial cells (HMVECs) were purchased from Lonza. THP-1 monocytes were obtained from Dr. Pamela Lein (University of California, Davis). […]
(§3) LXW7-bio (1 μM) was incubated with 3×10^5 HECFCs, HCAECs, HMVECs, αvβ3-K562 and αIIbβ3-K562 cells and THP-1 monocytes and 1×10^8 platelets in binding buffer (HEPES containing 10% FBS) on ice for 30 minutes. […] Samples were analyzed on a BD Fortessa LSR Cell Analyzer and further data analysis and gating were performed using FlowJo software (Treestar, Inc.).

THP-1 monocytes [1] = experiment: flow cytometry ligand-cell binding, THP-1 monocytes; settings: biotinylated ligand 1 μM
Procedure: as §1
(§4) LXW7-bio (1 μM) was incubated with 3×10^5 HECFCs, HCAECs, HMVECs, αvβ3-K562 and αIIbβ3-K562 cells and THP-1 monocytes and 1×10^8 platelets in binding buffer (HEPES containing 10% FBS) on ice for 30 minutes. The samples were washed three times with DPBS containing 1% FBS and incubated with 2 μg/ml of streptavidin-phycoerythrin on ice for 30 minutes and then washed with DPBS. Samples were analyzed on a BD Fortessa LSR Cell Analyzer and further data analysis and gating were performed using FlowJo software (Treestar, Inc.).

HCAECs [2] = experiment: attachment assay on ligand treated culture surfaces, HCAECs; format: cell-based, human; settings: avidin + biotinylated ligand 2 μM; 10 minutes
Excerpt: Ligands LXW7, LXY30, and LLP2A were synthesized as in U.S. Pat. No. 9,073,974. Biotinylated LXW7 (LXW7-bio) and biotinylated GRGD (GRGD-bio) (SEQ ID NO: 1) were synthesized using established solid phase peptide synthesis protocols (Xiao et al. (2010) Mol Cancer Therapeutics 9:2714). Peptide-bio was designed to have biotin attached to the side chain of Lys, with two hydrophilic linkers between peptide and Lys (biotin). To modify culture surface with ligands, target culture wells in a 24-well plate were coated with 500 μL of 20 μg/mL Avidin (Thermo Fisher Scientific), and incubated for 1 hour at 37° C. Avidin coated wells were rinsed three times with DPBS and were treated with 500 μL molar equivalents (2 μM) of D-biotin (Thermo Fisher Scientific), LXW7-bio, or GRGD-bio (SEQ ID NO: 1). After 1 hour, the wells were washed three times with DPBS and blocked with 1% bovine serum albumin (BSA; Thermo Fisher Scientific) for 1 hour. After the wells were rinsed three times with DPBS, for cell attachment assay, 5×10^4 HCAECs and THP-1 monocytes suspended in the respective maintenance medium were added to the wells and incubated for 10 minutes or 16 hours at 37° C., 5% CO2, respectively. After each time point the wells were washed three times with DPBS, and the adhered cells were fixed in 10% formalin (Azer Scientific) for 20 minutes. For platelets attachment assay, the PRP was centrifuged, and the platelet pellet was resuspended in 1% BSA with 2 mM CaCl2 and 1 mM MgCl2 to achieve a final concentration of 1×10^8 platelets/mL, added to the wells at a density of 5×10^7 platelets/cm^2, and incubated for 16 hours at 37° C., 5% CO2. The wells were washed three times with DPBS, and the adhered cells were fixed in 10% formalin for 20 min. The HCAECs wells were washed with DPBS again and blocked for 1 hour with 1% BSA. An additional wash was performed, and the plate was incubated overnight with mouse anti-PECAM-1 antibody (1:100; Abcam) in 1% BSA at 4° C. […] Five images were randomly taken from each sample and quantification of images was performed using the Image J software (NIH).

platelets [3] = experiment: platelets attachment assay on ligand treated culture surfaces; format: cell-based; settings: 16 hours
Excerpt: (§5) Ligands LXW7, LXY30, and LLP2A were synthesized as in U.S. Pat. No. 9,073,974. Biotinylated LXW7 (LXW7-bio) and biotinylated GRGD (GRGD-bio) (SEQ ID NO: 1) were synthesized using established solid phase peptide synthesis protocols (Xiao et al. (2010) Mol Cancer Therapeutics 9:2714). Peptide-bio was designed to have biotin attached to the side chain of Lys, with two hydrophilic linkers between peptide and Lys (biotin). To modify culture surface with ligands, target culture wells in a 24-well plate were coated with 500 μL of 20 μg/mL Avidin (Thermo Fisher Scientific), and incubated for 1 hour at 37° C. Avidin coated wells were rinsed three times with DPBS and were treated with 500 μL molar equivalents (2 μM) of D-biotin (Thermo Fisher Scientific), LXW7-bio, or GRGD-bio (SEQ ID NO: 1). After 1 hour, the wells were washed three times with DPBS and blocked with 1% bovine serum albumin (BSA; Thermo Fisher Scientific) for 1 hour. After the wells were rinsed three times with DPBS, for cell attachment assay, 5×10^4 HCAECs and THP-1 monocytes suspended in the respective maintenance medium were added to the wells and incubated for 10 minutes or 16 hours at 37° C., 5% CO2, respectively. […] Five images were randomly taken from each sample and quantification of images was performed using the Image J software (NIH).

integrin αvβ3 = biological target: T2, integrin αvβ3 (Homo sapiens, UniProt P05106+P06756); experiment: flow cytometry ligand-cell binding, αvβ3-K562 cells; settings: K562 cells highly expressing integrin αvβ3
T2 construct: expressed in transfected cells; host or cells: K562 myeloid leukemia cells (αvβ3-K562), provided by Dr. Yoshikazu Takada
Procedure: as §1, §2, §3

platelets [4] = experiment: flow cytometry ligand-cell binding, platelets; settings: biotinylated ligand 1 μM
Procedure: as §1, §4

THP-1 monocytes [5] = experiment: attachment assay on ligand treated culture surfaces, THP-1 monocytes; format: cell-based; settings: 16 hours
Excerpt: as §5

HECFCs = experiment: on-bead whole cell binding assay, HECFCs; format: cell-based, human; settings: 2 hours incubation
Excerpt: Endothelial colony forming cells (ECFCs), a subtype of EPCs also often referred to as outgrowth endothelial cells (OECs), were isolated from human umbilical cord blood as previously described (Williams et al. (2015) PloS One 10:e0123437; Ingram et al. (2004) Blood 104:2752). Human umbilical cord blood (10 U heparin/mL blood) was obtained from the UC Davis Umbilical Cord Blood Collection Program (UCBCP) and diluted 1:1 with Phosphate-buffered saline (PBS), without calcium and magnesium, pH 7.2 (Hyclone). Fifteen mL Ficoll-Paque PLUS (Amersham Biosciences) was laid at the bottom of 20 mL diluted blood and centrifuged at 2000 rpm for 30 minutes at room temperature. The hazy layer of mononuclear cells (MNCs) that seat at the interface between the Ficoll and serum was collected and dispensed into 50-mL conical tube containing 10 mL EBM-2 (Lonza) and centrifuged at 1500 rpm for 10 minutes at room temperature. The supernatant was carefully aspirated and the pellets were treated with red blood cell lysis buffer (eBioscience, Inc.) and then sorted by CD34 microbead magnetic sorting (Miltenyi Biotec GmbH) as per manufacturer's instructions. The CD34^+ cells were seeded on rat-tail collagen I (BD Biosciences Discovery) coated tissue culture plates and cultured in EGM-2 media (Lonza). After 24 h, non-adherent cells were removed and the media was changed daily to day 7 and every other day thereafter. ECFC-derived colonies appeared between day 4 and day 7 of culture with s typical endothelial cobblestone pattern. Individual colonies were isolated and expanded and allowed to grow to 80% to 90% confluency before first passage. ECFCs were used between P3 and P5 for all experiments.
HECFCs, HCAECs, HMVECs and THP-1 monocytes were cultured in their respective growth medium as described in Example 1. For cell bead-binding assay, 6×10^5 HECFCs, HCAECs, HMVECs or THP-1 monocytes in 2 mL of their respective culture medium were added to an ultra-low attachment 35-mm petri dish (Corning Incorporated) followed by resin beads (Lam et al. (1991) Nature 354:82). […]

HCAECs [6] = experiment: on-bead whole cell binding assay, HCAECs; format: cell-based, human; settings: 2 hours incubation
Excerpt: Human coronary artery endothelial cells (HCAECs) were purchased from ATCC. Human cardiac microvascular endothelial cells (HMVECs) were purchased from Lonza. THP-1 monocytes were obtained from Dr. Pamela Lein (University of California, Davis). The myeloid leukemia K562 cells that have been transfected with human integrin αvβ3 gene (αvβ3-K562 cells) were provided by Dr. Yoshikazu Takada and the K562 cells transfected with human integrin αIIbβ3 gene (αIIb3-K562 cells) were provided Dr. Jennifer Cochran (Stanford University)
HECFCs, HCAECs, HMVECs and THP-1 monocytes were cultured in their respective growth medium as described in Example 1. For cell bead-binding assay, 6×10^5 HECFCs, HCAECs, HMVECs or THP-1 monocytes in 2 mL of their respective culture medium were added to an ultra-low attachment 35-mm petri dish (Corning Incorporated) followed by resin beads (Lam et al. (1991) Nature 354:82). The dishes were incubated in a shaking incubator at 37° C., 5% CO2 for various time points at 40 rpm. For platelet bead-binding assay, the platelets isolated as described in Example 1 were added to an ultra-low attachment 35-mm petri dish and incubated with the resin beads in the shaking incubator as described for the cell-bead binding assy. Phase contrast images were taken at different time points using an Olympus IX81 microscope.
Three integrin-targeting ligands—LXY30 (α3β1), LLP2A (α4β1) and LXW7 (αvβ3)—were tested for their binding activities to EPCs and ECs. […] LXY30 only bound to ECs, not to EPCs. LLP2A only bound to EPCs, not to ECs. LXW7 bound well to both EPCs and ECs.

T2 sequence (P06756 31-889 limits assumed): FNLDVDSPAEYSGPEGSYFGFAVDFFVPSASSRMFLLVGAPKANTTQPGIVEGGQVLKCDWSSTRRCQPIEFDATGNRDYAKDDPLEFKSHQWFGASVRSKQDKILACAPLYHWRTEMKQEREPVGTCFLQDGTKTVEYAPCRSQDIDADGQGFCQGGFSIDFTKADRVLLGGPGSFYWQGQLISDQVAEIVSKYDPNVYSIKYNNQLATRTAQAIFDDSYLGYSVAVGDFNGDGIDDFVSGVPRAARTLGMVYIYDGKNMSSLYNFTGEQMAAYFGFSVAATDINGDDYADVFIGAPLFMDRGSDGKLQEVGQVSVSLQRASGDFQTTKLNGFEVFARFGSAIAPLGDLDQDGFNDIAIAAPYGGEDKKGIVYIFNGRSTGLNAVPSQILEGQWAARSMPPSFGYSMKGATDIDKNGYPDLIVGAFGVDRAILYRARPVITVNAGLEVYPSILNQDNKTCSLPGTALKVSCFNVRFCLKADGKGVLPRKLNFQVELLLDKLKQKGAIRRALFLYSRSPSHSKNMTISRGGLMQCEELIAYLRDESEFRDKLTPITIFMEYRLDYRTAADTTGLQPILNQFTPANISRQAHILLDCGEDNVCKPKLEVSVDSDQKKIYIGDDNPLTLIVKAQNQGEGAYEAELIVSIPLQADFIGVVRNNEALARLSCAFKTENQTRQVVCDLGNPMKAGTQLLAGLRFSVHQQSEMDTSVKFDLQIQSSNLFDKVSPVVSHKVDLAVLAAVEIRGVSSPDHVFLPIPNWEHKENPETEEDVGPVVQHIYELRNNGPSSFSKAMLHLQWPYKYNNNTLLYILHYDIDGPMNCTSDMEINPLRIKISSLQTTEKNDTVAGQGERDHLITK
T2 sequence (P06756 891-1048 partner limits assumed): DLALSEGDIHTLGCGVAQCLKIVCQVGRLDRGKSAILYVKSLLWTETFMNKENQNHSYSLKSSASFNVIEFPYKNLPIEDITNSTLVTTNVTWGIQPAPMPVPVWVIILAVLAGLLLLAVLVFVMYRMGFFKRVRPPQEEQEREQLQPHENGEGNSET
T2 sequence (P05106 27-788): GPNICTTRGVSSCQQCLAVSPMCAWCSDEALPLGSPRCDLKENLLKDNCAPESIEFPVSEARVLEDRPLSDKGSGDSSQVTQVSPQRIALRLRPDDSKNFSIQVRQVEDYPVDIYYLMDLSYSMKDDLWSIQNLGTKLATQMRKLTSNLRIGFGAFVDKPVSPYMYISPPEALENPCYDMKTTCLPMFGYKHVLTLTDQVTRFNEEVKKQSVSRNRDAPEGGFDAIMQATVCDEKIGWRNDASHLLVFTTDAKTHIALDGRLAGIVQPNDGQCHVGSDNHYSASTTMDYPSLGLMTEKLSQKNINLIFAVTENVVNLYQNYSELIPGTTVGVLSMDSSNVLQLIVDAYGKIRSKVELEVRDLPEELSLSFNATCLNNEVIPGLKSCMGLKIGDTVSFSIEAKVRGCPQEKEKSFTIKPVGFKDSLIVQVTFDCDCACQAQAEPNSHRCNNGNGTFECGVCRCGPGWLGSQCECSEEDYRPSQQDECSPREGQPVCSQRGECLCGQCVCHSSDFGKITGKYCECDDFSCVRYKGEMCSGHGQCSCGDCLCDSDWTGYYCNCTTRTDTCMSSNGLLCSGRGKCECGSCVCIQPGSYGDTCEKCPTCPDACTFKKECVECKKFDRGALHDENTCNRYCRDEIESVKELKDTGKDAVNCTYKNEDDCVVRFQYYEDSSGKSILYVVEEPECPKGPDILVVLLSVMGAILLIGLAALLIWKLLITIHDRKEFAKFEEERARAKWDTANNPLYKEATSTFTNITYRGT

| Substance | binding to αIIbβ3-K562 cells by flow cytometry (integrin αIIbβ3) | binding to THP-1 monocytes by flow cytometry (THP-1 monocytes [1]) | attachment of HCAECs on ligand treated surface (HCAECs [2]) | platelet adhesion on ligand treated surface (platelets [3]) | binding affinity to αvβ3-K562 cells by flow cytometry (integrin αvβ3) | binding affinity with platelets by flow cytometry (platelets [4]) | THP-1 monocyte attachment on ligand treated surface (THP-1 monocytes [5]) | binding of HECFCs to ligand-displaying resin beads (HECFCs) | binding of HCAECs to ligand-displaying resin beads (HCAECs [6]) |
| --- | --- | --- | --- | --- | --- | --- | --- | --- | --- |
| GRGD [reference compound] | very strong binding | did not bind to THP-1 monocytes | bound to both LXW7 and GRGD | significantly higher number of platelets to attach | bound well | strong binding to platelets | did not support THP-1 monocyte attachment | – | – |
| LXY30: integrin-targeting ligand (α3β1), synthesized as in U.S. Pat. No. 9,073,974 (CDGFGPNCR; not fully specified; also: cyclised, D-residues and non-natural residues, places not given here) [reference compound] | – | – | – | – | – | – | – | not to HECFCs or to THP-1 monocytes | bound only to HCAECs |
